Data reported in article PMC10388362, “Fluorescent Ligands Enable Target Engagement Studies for the Intracellular Allosteric Binding Site of the Chemokine Receptor CXCR2” (Journal of Medicinal Chemistry, 2023).

Tests used:
[1] = target: T1, CCR7 (Homo sapiens, UniProt P32248); test: Membrane-based NanoBRET saturation assay, selectivity (CCR7_GSSG_Nluc membranes)
T1 construct: host or cells: HEK293T; membrane preparation
T1 sequence (P32248 25-378): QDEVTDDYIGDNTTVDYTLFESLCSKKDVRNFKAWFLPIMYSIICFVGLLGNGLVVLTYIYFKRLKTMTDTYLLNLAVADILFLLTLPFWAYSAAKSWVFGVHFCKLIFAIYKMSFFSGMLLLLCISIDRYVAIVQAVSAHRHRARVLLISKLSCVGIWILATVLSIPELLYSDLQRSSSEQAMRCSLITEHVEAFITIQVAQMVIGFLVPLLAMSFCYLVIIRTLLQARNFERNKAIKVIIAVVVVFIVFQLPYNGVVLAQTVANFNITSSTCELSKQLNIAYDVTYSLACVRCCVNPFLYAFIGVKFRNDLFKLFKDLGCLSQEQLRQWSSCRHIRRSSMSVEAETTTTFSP
Procedure: (§1) For the establishment of our NanoBRET binding assay, we referred to a recently published protocol.[45] The fluorescent ligands (9a–c) were dissolved in DMSO (1 mM) and further diluted to varying concentrations in an assay buffer (50 mM Na2HPO4, 50 mM KH2PO4, pH 7.4, 1 mg/mL saponin, 5% FBS) and 5 μL of these dilutions were pipetted to a 384-well plate. To determine the total binding, 5 μL of the assay buffer was added to the corresponding wells, while 5 μL of a solution of 3 in the assay buffer (final assay concentration: 1 μM) was used to determine nonspecific binding. Then, 20 μL of the membrane preparations diluted in the assay buffer (2 μg total protein/well) were added and the plates were incubated for 90 min at 37 °C. Subsequently, 5 μL of a furimazine solution (Promega, Mannheim, Germany, final assay dilution: 1:5000) was added to each well (final assay volume: 35 μL) before measuring luminescence with a CLARIOstar microplate reader using 620/10 and 475/30 nm emission filters after 5 min of incubation in the dark. Bioluminescence resonance energy transfer (BRET) was determined as the ratio of acceptor fluorescence and donor luminescence. […] Specific binding signals were calculated as a difference of total and nonspecific binding. If required, netBRET values were calculated as the difference between total BRET values and the values obtained in the absence of a fluorescent ligand. […]

[2] = target: T2, CCR9 (Homo sapiens, UniProt P51686); test: Membrane-based NanoBRET saturation assay, selectivity (CCR9_Nluc membranes)
T2 construct: host or cells: HEK293T; membrane preparation
T2 sequence (P51686 1-369): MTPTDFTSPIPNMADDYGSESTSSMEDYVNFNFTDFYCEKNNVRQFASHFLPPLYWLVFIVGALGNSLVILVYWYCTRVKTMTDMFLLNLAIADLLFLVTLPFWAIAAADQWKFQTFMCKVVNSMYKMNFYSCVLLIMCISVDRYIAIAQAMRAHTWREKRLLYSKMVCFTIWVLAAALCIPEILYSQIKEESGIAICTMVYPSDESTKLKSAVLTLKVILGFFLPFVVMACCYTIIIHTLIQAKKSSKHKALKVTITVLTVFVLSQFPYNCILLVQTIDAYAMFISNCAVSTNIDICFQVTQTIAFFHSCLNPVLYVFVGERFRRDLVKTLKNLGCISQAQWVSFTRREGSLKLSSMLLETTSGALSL
Procedure: as §1

[3] = target: T3, CXCR1 (Homo sapiens, UniProt P25024); test: Membrane-based NanoBRET saturation assay, selectivity (CXCR1_Nluc membranes); format: binding; details: cell-free
T3 construct: host or cells: HEK293T, transient; membrane preparation
T3 sequence (P25024 1-350): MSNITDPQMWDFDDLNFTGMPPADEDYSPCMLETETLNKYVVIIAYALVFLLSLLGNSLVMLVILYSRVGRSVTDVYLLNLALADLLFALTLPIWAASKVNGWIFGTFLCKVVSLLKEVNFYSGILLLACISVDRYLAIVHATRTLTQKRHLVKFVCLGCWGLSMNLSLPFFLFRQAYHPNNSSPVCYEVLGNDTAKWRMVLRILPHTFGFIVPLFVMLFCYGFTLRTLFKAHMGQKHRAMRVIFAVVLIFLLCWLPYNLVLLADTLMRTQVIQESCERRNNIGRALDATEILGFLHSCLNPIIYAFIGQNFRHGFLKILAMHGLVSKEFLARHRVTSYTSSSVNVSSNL
Procedure: For the establishment of our NanoBRET binding assay, we referred to a recently published protocol.[45] The fluorescent ligands (9a–c) were dissolved in DMSO (1 mM) and further diluted to varying concentrations in an assay buffer (50 mM Na2HPO4, 50 mM KH2PO4, pH 7.4, 1 mg/mL saponin, 5% FBS) and 5 μL of these dilutions were pipetted to a 384-well plate. To determine the total binding, 5 μL of the assay buffer was added to the corresponding wells, while 5 μL of a solution of 3 in the assay buffer (final assay concentration: 1 μM) was used to determine nonspecific binding. Then, 20 μL of the membrane preparations diluted in the assay buffer (2 μg total protein/well) were added and the plates were incubated for 90 min at 37 °C. Subsequently, 5 μL of a furimazine solution (Promega, Mannheim, Germany, final assay dilution: 1:5000) was added to each well (final assay volume: 35 μL) before measuring luminescence with a CLARIOstar microplate reader using 620/10 and 475/30 nm emission filters after 5 min of incubation in the dark. Bioluminescence resonance energy transfer (BRET) was determined as the ratio of acceptor fluorescence and donor luminescence. The algorithms for one-site saturation binding from PRISM9.5 (GraphPad) were utilized to analyze total, nonspecific, and specific binding. Specific binding signals were calculated as a difference of total and nonspecific binding. If required, netBRET values were calculated as the difference between total BRET values and the values obtained in the absence of a fluorescent ligand. For selectivity studies with CCR2, CCR7, CCR9, and CXCR1, we modified the procedure described above.

- binding to CCR7 [1]: no significant binding
- binding to CCR9 [2]: no significant binding
- Kd ([3]; CXCR1_Nluc membranes): 198 ± 29 nM
- selectivity for CXCR2 compared to CXCR1 ([3]; from Kd values): ~50 fold
Structure (SMILES): Cc1ccc([C@H](Nc2c(Nc3cccc(C(=O)NCc4cn(CCOCCOCCOCCNC(=O)c5ccc(C(=O)[O-])c(-c6c7ccc(=[N+](C)C)cc-7oc7cc(N(C)C)ccc67)c5)nn4)c3O)c(=O)c2=O)C(C)(C)C)o1 [9a, (R)-4-((2-(2-(2-(2-(4-((3-((2-((2,2-Dimethyl-1-(5-methylfuran-2-yl)propyl)amino)-3,4-dioxocyclobut-1-en-1-yl)amino)-2-hydroxybenzamido)methyl)-1H-1,2,3-triazol-1-yl)ethoxy)ethoxy)ethoxy)ethyl)carbamoyl)-2-(6-(dimethylamino)-3-(dimethyliminio)-3H-xanthen-9-yl)benzoate]
